# Results taken from publication PMC11720353, “Clove Essential Oil as a Source of Antitumoral Compounds Capable of Crossing the Blood–Brain Barrier: A Focus on the Effects of β-Caryophyllene and Eugenol in a Glioblastoma Cell Line” (International Journal of Molecular Sciences, 2024).
# Read-outs that look alike come from different tables or passages of the source.
# Assays:
# U87 cells [1] = assay: Metabolic activity (Alamar blue) assay and HSA synergy analysis; type: cell-based, human; details: EU 2.5, 25, 200 µM or BCA 1.25, 12.5, 125 µM alone, 24-72 h
# Method: To evaluate the cytotoxic/antiproliferative potential of BCA and/or EU, the U87 and HMC3 cells were seeded, in triplicate, into 48-well culture plates (4 × 10^4 cells/well). After 24 h, the medium was replaced, and the cells were treated either with the vehicle (ethanol) or with different concentrations of EO single molecules, diluted in ethanol alone ([…]; BCA: 1.25 µM, µM, 125 µM) or in combination (EU 2 µM and BCA 1.25 µM; EU 20 µM and BCA 12.5 µM; and EU 200 µM and BCA 125 µM) in order to evaluate the possible synergistic effects. The final concentration of ethanol in the cell medium was kept lower than 0.1%. Non-treated cells were considered the control condition. Metabolic activity was evaluated using a modified Alamar blue® assay, as previously described. […] After 2 h of incubation at 5% CO2 and 37 °C, the absorbance was read at 570 and 600 nm in a BioTeck (BioTek Instruments, Inc., Winooski, VT, USA). The absorbance results were obtained using the Gen5 program. The metabolic activity was then calculated by the following equation: Metabolicactivity %=A570−A600 oftreated cells/A570−A600 ofcontrol cells×100 All data were analyzed using the software GraphPad Prism v.9.00 (GraphPad Software, San Diego, CA, USA). All in vitro experiments were performed in triplicate, and the acquired results were expressed as means ± SEM. […]
# U87 cells [2] = assay: Clonogenic cell survival assay; type: cell-based, human; details: EU 200 µM, BCA 125 µM, alone or in combination, 14 days
# Method: An evaluation of the antiproliferative effect via clonogenic assay on the tumoral U87 cells was performed using an adapted protocol from the previously described procedure. Briefly, U87 cells (0.8 × 10^3 cells/well) were seeded into 6-well plates and incubated for 24 h. After the incubation, based on the results obtained from the cell viability assay and synergistic score, the cells were treated either with EO single compounds diluted in ethanol alone (EU 200 µM and BCA 125 µM) or in combination for 14 days with the media being changed every 2/3 days. The cells without treatment were considered the control condition. Following the incubation, the cells were washed with PBS, fixed with paraformaldehyde (PFA) and stained with 0.1% crystal violet solution. The number of colonies was counted by microscopy, and the surviving fraction (SF) was calculated as the mean colonies/number of cells seeded.
# U87 cells [3] = assay: Cell death assay (Annexin V/PI, flow cytometry); type: cell-based, human; details: EU 200 µM, BCA 125 µM, alone or in combination, 24 h
# Method: (§4) HMC3 and U87 cells were seeded in duplicate into 12-well plates (10 × 10^4 cells/well). After 24 h of incubation at 37 °C and 5% CO2, the medium was replaced, and the cells were treated either with EU (200 µM) or BCA (125 µM), alone and in combination (EU 200 µM + BCA 125 µM). Following the 24 h treatment, the cells were co-stained with AV-APC and PI according to the manufacturer’s protocol (Biolegend, San Diego, CA, USA). Briefly, the cells were resuspended in binding buffer (100 µL) and incubated with AV-APC solution (5 µL) and PI solution (2 µL) for 15 min at room temperature. Then, the cells were diluted in a binding buffer (400 µL). A six-parameter, four-color FACSCalibur flow cytometer (Becton Dickinson, San Jose, CA, USA) was used, and at least 10,000 events were collected by acquisition using CellQuest software (Becton Dickinson, San Jose, CA, USA). The results were analyzed with the Paint-a-Gate software and expressed in percentage (%).
# HMC3 cells [4] = assay: Cell death assay (Annexin V/PI, flow cytometry); type: cell-based, human; details: EU 200 µM, BCA 125 µM, alone or in combination, 24 h
# Method: as §4
# HMC3 cells [5] = assay: Cell cycle analysis (PI/RNase, flow cytometry); type: cell-based, human; details: EU 200 µM, BCA 125 µM, alone or in combination, 24 h
# Method: (§1) Analysis of the effect of BCA and/or EU on the cell cycle was assessed with flow cytometry using propidium iodide (PI)/RNase solution, according to the manufacturer’s protocol (Immunostep, Salamanca, Spain), as previously described. HMC3 and U87 cells (30 × 10^4 cells/well) were seeded in triplicate into 6-well plates and incubated for 24 h at 37 °C and 5% CO2. Thereafter, the cells were treated either with EU (200 µM) or BCA (125 µM) alone or in combination (EU 200 µM + BCA 125 µM). After 24 h, the cells were detached and fixed in 70% ethanol for 60 min at 4 °C, washed twice with PBS, and then stained with 500 µL of PI/RNase solution. The results were acquired using CellQuest software and expressed as the calculated percentage of the cell population in each cell cycle phase (G0/G1, S and G2/M) according to the PI intensity.
# U87 cells [6] = assay: Cell cycle analysis (PI/RNase, flow cytometry); type: cell-based, human; details: EU 200 µM, 24 h
# Method: as §1
# HMC3 cells [7] = assay: Quantitative real-time PCR of mRNA levels; type: cell-based, human; details: 24 h
# Method: (§2) An analysis of the genes involved in angiogenesis, tumor progression and proliferation were performed. In particular, we analyzed the genes involved in the cell cycle and in three different apoptotic pathways: B-cell lymphoma-2 (BCL2), Bcl-2-like protein 1 (BCL2L1), Bcl-2 Associated X-protein (BAX), BCL2 Antagonist/Killer 1 (BAK-1) and Caspase 9 (CASP9) as the key genes of the intrinsic mitochondrial pathway; and Phosphatase and tensin homolog (PTEN), Tumor protein p53 (TP53), Murine double minute 2 (MDM2), Cyclin-dependent kinase 4 (CDK4) and Vascular endothelial growth factor A (VEGFA) mRNA levels were assessed by quantitative real-time PCR (qRT-PCR). HMC3 and U87 cells were seeded with a density of 1 × 10^6 cells per well and incubated for 24 h at 37 °C and 5% CO2. Thereafter, the cells were treated either with EU (200 μM) or BCA (125 μM) alone and in combination (EU 200 μM + BCA 125 μM). Total RNA was extracted using the TripleXtractor solution (GRISP, Lisbon, Portugal) according to the manufacturer's protocol. RNA was converted into cDNA through the […] Synthesis Supermix (GRISP, Lisbon, Portugal). Each optimized reaction was performed using […] SYBR Green Mastermix 2X with […], Lisbon, Portugal) and subjected to the amplification protocol described by the manufacturer, using a melting temperature of 60 °C. The relative gene expression was determined by the 2^-ΔΔCt method and normalized on Glyceraldehyde-3-Phosphate Dehydrogenase (GAPDH), which was the endogenous reference and relative to the untreated cells (control condition).
# U87 cells [8] = assay: Quantitative real-time PCR of mRNA levels; type: cell-based, human; details: 24 h
# Method: as §2
# HMC3 cells [9] = assay: Inflammatory cytokines in conditioned media (Luminex/BioPlex); type: cell-based, human; details: EU 200 µM, BCA 125 µM, alone or in combination, 24 h
# Method: (§3) In order to determine the impact of BCA and/or EU on inflammatory cytokines levels, cytokine expression analyses (L-6, IL-4, IL-8 and TNF-α) were performed using a customized detection panel purchased from Bio-techne (Minneapolis, MN, USA). The cells were seeded, in triplicate, into 24-well culture plates (8 × 10^4 cells/well). After 24 h, the medium was replaced and the cells were treated either with the vehicle (ethanol) or with different concentrations of EO single compounds alone (EU: 2 µM, 20 µM, 200 µM; and BCA: 1.25 µM, 12.5 µM, 125 µM) or in combination (EU 2 µM + BCA 1.25 µM; EU 20 µM + BCA 12.5 µM; and EU 200 µM + BCA 125 µM). The final concentration of ethanol in the cell medium was kept lower than 0.1%. The ethanol 0.1%-treated cells were considered the control condition. After the 24 h treatment, supernatants were collected and centrifuged at 4,000× g for 10 min, and the samples were analyzed with the BioPlex 200 instrument (BioRad®, Hercules, CA, USA) following the manufacturer’s protocol.
# U87 cells [10] = assay: as above; type: cell-based, human; details: EU 200 µM, BCA 125 µM, alone or in combination, 24 h
# Method: as §3
# [11] = cited from earlier work
# [12] = EU 200 µM, BCA 125 µM, alone or in combination
smiles,measurement,setting,value
"C=CCc1ccc(O)c(OC)c1 [EU, 4-allyl-2-methoxyphenol]","reduction in metabolic activity, single compounds",U87 cells [1],No reduction
same,decrease of clonal growth / colony formation with respect to control,U87 cells [2],−59.5%
same,"live (viable) cells, change with respect to control",U87 cells [3],did not affect
same,cell viability,HMC3 cells [4],did not affect
same,effect on cell cycle,HMC3 cells [5],no effects
same,effect on cell cycle,U87 cells [6],no significant effect
same,"PTEN mRNA expression, change vs control",HMC3 cells [7]; EU 200 µM or BCA 125 µM,+42.2%
same,"BAK1 mRNA expression, change vs control",HMC3 cells [7]; [12],no effect
same,"BAX mRNA expression, change vs control",HMC3 cells [7]; [12],−29.7%
same,"BCL2L1 mRNA expression, change vs control",HMC3 cells [7]; [12],−34.1%
same,"BCL2 mRNA expression, change vs control",HMC3 cells [7]; [12],−61.2%
same,"CASP9 mRNA expression, change vs control",HMC3 cells [7]; [12],no effect
same,"CDK4 mRNA levels, change vs control",HMC3 cells [7]; [12],no effects
same,"MDM2 mRNA expression, change vs control",HMC3 cells [7]; [12],−61.2%
same,"TP53 mRNA expression, change vs control",HMC3 cells [7]; [12],no effect
same,"VEGFA mRNA expression, change vs control",HMC3 cells [7]; [12],−31.5%
same,"PTEN mRNA expression, change vs control",U87 cells [8]; EU 200 µM or BCA 125 µM,+86.4%
same,"BAK1 mRNA expression, change vs control",U87 cells [8]; [12],+32.3%
same,"BAX mRNA expression, change vs control",U87 cells [8]; [12],+50.3%
same,"BCL2L1 mRNA expression, change vs control",U87 cells [8]; [12],−42.2%
same,"BCL2 mRNA expression, change vs control",U87 cells [8]; [12],−45.6%
same,"CASP9 mRNA expression, change vs control",U87 cells [8]; [12],no effect
same,"MDM2 mRNA expression, change vs control",U87 cells [8]; [12],no effect
same,"TP53 mRNA expression, change vs control",U87 cells [8]; [12],+143.6%
same,"VEGFA mRNA expression, change vs control",U87 cells [8]; [12],no effect
same,"CDK4 mRNA levels, change vs control","U87 cells [8]; EU 200 µM, BCA 125 µM, alone or in combination, normalized to GAPDH",−49.1%
same,"IL-4 levels, change vs control",HMC3 cells [9],−26%
same,"IL-4 levels, change vs control",U87 cells [10],−31%
same,"IL-6 secretion, change vs control",U87 cells [10],None of the treatments modulated
same,"IL-8 secretion, change vs control",U87 cells [10],unaffected
same,ability to cross the blood–brain barrier,"[11]; rat, in vivo",high aptitude to cross the blood–brain barrier
O=C/C=C/c1ccccc1 [cinnamaldehyde],ability to permeate the CNS,"[11]; rat, not told, po",inability to permeate the CNS
C=C(C)[C@H]1CC=C(C)CC1 [limonene],ability to permeate the CNS,[11]; after oral administration,inability to permeate the CNS
